According to patent US11440884B2, “Compounds, salts thereof and methods for treatment of diseases” (ACADIA PHARMACEUTICALS INC., priority 2017, dated 2022):
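Also: Read-out is β-galactosidase marker gene activity with ONPG substrate, measured after five days of growth in 96-well plates holding the test compound.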

Each molecule was assayed against 5-HT2A receptor (Homo sapiens (Human), UniProt P28223) (assay: Receptor Selection and Amplification (R-SAT) functional antagonist assay). Settings: not given.
Chain of 5-HT2A receptor (P28223 whole entry): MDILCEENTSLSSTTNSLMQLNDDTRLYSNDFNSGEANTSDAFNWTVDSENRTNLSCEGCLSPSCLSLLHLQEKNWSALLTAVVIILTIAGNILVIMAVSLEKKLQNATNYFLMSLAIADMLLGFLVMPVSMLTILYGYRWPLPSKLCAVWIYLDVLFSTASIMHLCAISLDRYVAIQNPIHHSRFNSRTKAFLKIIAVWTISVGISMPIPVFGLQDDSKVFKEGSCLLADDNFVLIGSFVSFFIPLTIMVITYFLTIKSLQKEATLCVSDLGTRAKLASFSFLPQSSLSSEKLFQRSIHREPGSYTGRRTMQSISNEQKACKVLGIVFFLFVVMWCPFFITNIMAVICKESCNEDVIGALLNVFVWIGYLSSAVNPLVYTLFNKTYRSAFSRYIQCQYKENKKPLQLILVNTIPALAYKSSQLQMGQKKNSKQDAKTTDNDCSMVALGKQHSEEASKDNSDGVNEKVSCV
For `CCCCOc1ccc(CC(=O)N(Cc2ccc(F)cc2F)C2CCN(C)CC2)cc1.O=C(O)C(F)(F)F` [Compound 24, N-(2,4-difluorobenzyl)-2-(4-butoxyphenyl)-N-(1-methylpiperidin-4-yl)acetamide trifluoroacetic acid], the “5-HT2a pKi” value was 7.2. With `CN1CCC(N(Cc2ccc(F)cc2F)C(=O)OCc2ccc(OCCCF)cc2)CC1.O=C(O)C(F)(F)F` [Compound 27, 4-(3-fluoropropoxy)benzyl (2,4-difluorobenzyl)(1-methylpiperidin-4-yl)carbamate; trifluoroacetic acid] the “5-HT2a pKi” value was 9.8. For `CN1CCC(N(Cc2ccc(F)cc2F)C(=O)OCc2ccc(OC(CF)CF)cc2)CC1.O=C(O)C(F)(F)F` [Compound 28, 4-((1,3-difluoropropan-2-yl)oxy)benzyl (2,4-difluorobenzyl)(1-methylpiperidin-4-yl)carbamate; trifluoroacetic acid], the “5-HT2a pKi” value was 10.1. With `CC(C)COc1ccc(CC(=O)N(Cc2ccc(Cl)cc2F)C2CCN(C)CC2)cc1.O=C(O)C(F)(F)F` [Compound 31, N-[(4-chloro-2-fluorophenyl)methyl]-N-(1-methylpiperidin-4-yl)-2-[4-(2-methylpropoxy)phenyl]acetamide; trifluoroacetic acid] the “5-HT2a pKi” value was 7.3. For `COc1cc(F)c(CN(C(=O)Cc2ccc(OCC(C)C)cc2)C2CCN(C)CC2)c(F)c1.O=C(O)C(F)(F)F` [Compound 33, N-[(2,6-difluoro-4-methoxyphenyl)methyl]-N-(1-methylpiperidin-4-yl)-2-[4-(2-methylpropoxy)phenyl]acetamide; trifluoroacetic acid], the “5-HT2a pKi” value was 7.5. For `CC(C)Oc1ccc(CC(=O)N(Cc2ccc(F)c(F)c2F)C2CCN(C)CC2)cc1.O=C(O)C(F)(F)F` [Compound 34, N-(1-methylpiperidin-4-yl)-2-[4-(propan-2-yloxy)phenyl]-N-[(2,3,4-trifluorophenyl)methyl]acetamide; trifluoroacetic acid], the “5-HT2a pKi” value was 7.4. `CC(=O)O.COc1cc(F)c(CN(C(=O)OCc2ccc(OCC(C)C)cc2)C2CCN(C)CC2)c(F)c1` [Compound 36, [4-(2-methylpropoxy)phenyl]methyl N-[(2,6-difluoro-4-methoxyphenyl)methyl]-N-(1-methylpiperidin-4-yl)carbamate; acetic acid] was tested, and the “5-HT2a pKi” value was 9.0.

Same assay, conditions: R-SAT, transfected NIH3T3 cells; guidance: high affinity pKi≥8.4, moderate affinity pKi≥7.7
With `CCOc1ccc(COC(=O)N(Cc2ccc(F)cc2F)C2CCN(C)CC2)cc1` [Compound 25, 4-ethoxybenzyl (2,4-difluorobenzyl)(1-methylpiperidin-4-yl)carbamate] the “5-HT2a pKi” value was 9.7. `C=CCOc1ccc(COC(=O)N(Cc2ccc(F)cc2F)C2CCN(C)CC2)cc1` [Compound 26, 4-(allyloxy)benzyl (2,4-difluorobenzyl)(1-methylpiperidin-4-yl)carbamate] was tested, and the “5-HT2a pKi” value was 9.3. For `CN1CCC(N(Cc2ccc(F)cc2F)C(=O)OCc2ccc(OCC(C)(C)O)cc2)CC1` [Compound 29, 4-(2-hydroxy-2-methylpropoxy)benzyl (2,4-difluorobenzyl)(1-methylpiperidin-4-yl)carbamate], the “5-HT2a pKi” value was 10.2. For `CN1CCC(N(Cc2ccc(F)cc2F)C(=O)OCc2ccc(OC3CC3)cc2)CC1` [Compound 30, 4-cyclopropoxybenzyl (2,4-difluorobenzyl)(1-methylpiperidin-4-yl)carbamate], the “5-HT2a pKi” value was 10.5. `CC(C)COc1ccc(COC(=O)N(Cc2ccc(F)c(F)c2F)C2CCN(C)CC2)cc1` [Compound 37, [4-(2-methylpropoxy)phenyl]methyl N-(1-methylpiperidin-4-yl)-N-[(2,3,4-trifluorophenyl)methyl]carbamate] was tested, and the “5-HT2a pKi” value was 8.9. For `CC(C)Oc1ccc(COC(=O)N(Cc2ccc(Cl)cc2F)C2CCN(C)CC2)cc1` [Compound 38, [4-(propan-2-yloxy)phenyl]methyl N-[(4-chloro-2-fluorophenyl)-methyl]-N-(1-methylpiperidin-4-yl)carbamate], the “5-HT2a pKi” value was 9.3. With `CN1CCC(N(Cc2ccc(F)cc2F)C(=O)OCc2ccc(OCCF)cc2)CC1` [Compound 39, [4-(2-fluoroethoxy)phenyl]methyl N-[(2,4-difluorophenyl)methyl]-N-(1-methylpiperidin-4-yl)carbamate] the “5-HT2a pKi” value was 9.8.
